# According to US10016383B2, “Inhibitors of metallo-β-lactamase-enzymes” (McMaster University, priority 2013, dated 2018):
# Target: NDM-1 (Klebsiella pneumoniae, UniProt C7C422)
# Assay: Reversibility assay (PD-10 column removal of AM-A)
# Assay type: biochemical
# Set-up: All β-lactamase overexpression constructs were generated without the leader peptide in a pET-28b plasmid containing a N-terminal His Tag; His tag (N, cleaved yes); SUMO (implied by the use of SUMO protease) (N, cleaved yes); made in house; host or cells: E. coli BL21(DE3)
# Settings: after removal of AM-A by gel filtration (PD10 column)
# Description: 5 mL NDM-1 (500 nM) was incubated either with AM-A (100 μM), or without, on ice for 1 hour. The no enzyme control was buffer alone (Chelex-treated 50 mM HEPES pH 7.5). 2.5 mL was passed through a PD-10 spin column (GE healthcare) following column equilibration with buffer and centrifuged at 2,000×g for 2 minutes. Pre-PD-10 (+AM-A, −AM-A, −NDM-1), Post-PD-10 ((+AM-A, −AM-A, −NDM-1), and nitrocefin were equilibrated to 30° C. 20 μL of the enzyme solution was added to 180 μL nitrocefin for final enzyme concentration of 50 nM, and nitrocefin of 100 μM and AM-A of 10 μM. Assays were read in 96-well microplate format at 490 nm using a Spectramax reader (Molecular Devices) for 1 hr at 30° C.
# Chain of NDM-1 (C7C422 29-270 limits assumed): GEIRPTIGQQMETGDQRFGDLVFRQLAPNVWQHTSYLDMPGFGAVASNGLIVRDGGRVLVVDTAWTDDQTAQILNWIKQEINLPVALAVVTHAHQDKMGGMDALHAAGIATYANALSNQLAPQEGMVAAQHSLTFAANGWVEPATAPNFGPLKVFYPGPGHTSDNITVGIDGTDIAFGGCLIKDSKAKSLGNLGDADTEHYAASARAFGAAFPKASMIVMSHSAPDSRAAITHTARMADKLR
structure (smiles),measurement,value
"N[C@H](CN[C@H](CN[C@@H](CC(=O)O)C(=O)O)C(=O)O)C(=O)O [AM-A, aspergillomarasmine A]",reversibility of NDM-1 inhibition,irreversible inactivation
